Experimental data published in US20110230423A1, “THERAPY AND MEDICAMENT USING INTEGRIN LIGANDS FOR TREATING CANCER” (priority 2008, published 2011).

Legend:
[1] = test system: newly diagnosed glioblastoma (GBM); assay: Phase I/IIa trial of cilengitide and temozolomide with concomitant radiotherapy, followed by maintenance, in newly diagnosed glioblastoma; type: in vivo, human
Procedure: Purpose: To evaluate safety, toxicity, and efficacy of the combination of the cyclic RGD pentapeptide Cilengitide (=cyclo-(Arg-Gly-Asp-DPhe-NMe-Val)), an inhibitor of integrins avβ3 and avβ5, in addition to standard temozolomide (TMZ) and radiotherapy (RT).
Patients and methods: Fifty-two pts (PS 0-1: 92%, 2: 8%; median age 57 yrs) after biopsy (n=9/17%) or tumor resection (n=43/83%) were treated with standard TMZ/RT (Stupp et al. NEJM 2005). In addition Cilengitide (500 mg i.v., 2×/week) was started one week before TMZ/RT and given throughout for the duration of chemotherapy or until progression. Primary endpoint was progression free survival rate at 6 months (target: 65%). Patients were followed with MRI every 2 months. Histopathologic diagnosis and MRI imaging were independently reviewed, MGMT promoter methylation status was assessed in 45 (86.5%) pts.

[2] = test system: U251 human glioblastoma cells; assay: Rat orthotopic glioblastoma model radiotherapy, cilengitide scheduling experiments; type: in vivo, NIH rnu nude rats; settings: individual animals
Procedure: NIH rnu nude rats are anaesthetized, restrained, and injected intracerebrally 1 mm retro orbitally, 3 mm to the right of the bregma and at a depth of 2.5 mm with 5×10E5 U251 human glioblastoma cells suspended in 10 ul of culture medium, using a #2701 Hamilton syringe fitted with a 26 gauge needle, essentially as previously described (Engebraaten et al., 1999). After 14 days, cilengitide (4 mg/kg) is given as an intraperitoneal bolus in PBS, at various time (8 h, 4 h, 2 h, 1 h) prior to a single treatment with single, collimated, dorsal-ventral beam of 6 MV x-rays, so that 95-100% of the central axis dose of 25 Gy hit the tumor volume (Kim et al., 1999). Each of the 7 subsequent days the animals also received an identical i.p. bolus of cilengitide. The animals are maintained under ad libitum food and drink until they become moribund, or are sampled for tissue analysis (in the t-4 and t-8 h groups, where the animals are healthy past 230 days post tumor injection). A Kaplan-Meier survival curve is calculated and plotted (FIG. 1) from the raw data (Table 1). All animals in the RT monotherapy group died by 120 d.

brain metastases = settings: hypofractionation approach with or without the radiosensitizer; cited from earlier work

For CC(C)[C@H]1C(=O)N[C@@H](CCCN=C(N)N)C(=O)NCC(=O)N[C@@H](CC(=O)O)C(=O)N[C@H](Cc2ccccc2)C(=O)N1C [Cilengitide, cyclo-(Arg-Gly-Asp-DPhe-NMeVal)], the “Treatment related non-hematologic grade 3 toxicities (patients)” value ([1]; Cilengitide 500 mg i.v. 2x/week plus standard TMZ/RT, n=3/52) was 5.7%, the “Tolerability of the combination” value ([1]; Cilengitide and TMZ/RT) was “well tolerated” and the “sigmoid perforation (grade 2), patients” value ([1]; patient with a history of sigmoid diverticulosis) was “One”. For the same compound, the “Days Post Implant” value ([2]; cilengitide 4 mg/kg i.p. 4 hours pre-irradiation (Rt 25 Gy) plus 7 subsequent daily boluses) was > 230 days and the “Days Post Implant” value ([2]; cilengitide 4 mg/kg i.p. 8 hours pre-irradiation (Rt 25 Gy) plus 7 subsequent daily boluses) was > 230 days.
In the case of COCC(O)Cn1ccnc1[N+](=O)[O-] (stereo not drawn) [misonidazol], the median survival (brain metastases) is listed as ≤ 3.9 months.
